From PubChem BioAssay (NCI)
Where “and” joins values, the source holds several entries; their conditions need not be identical. Equal entries are not always repeated.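 Compound exposure: 48 hours, 5 concentrations, 96-well plates. GI50 is the concentration that inhibits growth by half. TGI marks complete inhibition of growth.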 *1 amine or outer side, *2 acyl side, *3 side chain or, on linkers, in order; H or OH if unused. Where a SMILES comes first, the peptide text is derived from it. Bridges are numbered along the chain shown (N, C = ends). Roman numbers before positions name the chains, in order. X23 = CCCCCCCCCCCCCCC(=O)NC(CCCCN[*:2])C(=O)CN1CCCC1C(=O)[*:1]

Columns and labels:
Assay in all cases: NCI-60 cell line screen, 48 h
HT29 colon = test system: HT29 colon
UACC-62 melanoma = test system: UACC-62 melanoma
NCI-H23 lung = test system: NCI-H23 lung
SF-268 CNS = test system: SF-268 CNS
SK-MEL-2 melanoma = test system: SK-MEL-2 melanoma
TK-10 renal = test system: TK-10 renal
SK-MEL-28 melanoma = test system: SK-MEL-28 melanoma
OVCAR-8 ovarian = test system: OVCAR-8 ovarian
SF-295 CNS = test system: SF-295 CNS
SNB-19 CNS = test system: SNB-19 CNS

SMILES	TGI (HT29 colon) [µM]	TGI (UACC-62 melanoma) [µM]	TGI (NCI-H23 lung) [µM]	TGI (SF-268 CNS) [µM]	TGI (SK-MEL-2 melanoma)	TGI (TK-10 renal) [µM]	TGI (SK-MEL-28 melanoma) [µM]	TGI (OVCAR-8 ovarian)	TGI (SF-295 CNS) [µM]	TGI (SNB-19 CNS) [µM]	GI50 (HT29 colon) [nM]	GI50 (UACC-62 melanoma)	GI50 (NCI-H23 lung)	GI50 (TK-10 renal) [nM]	GI50 (SK-MEL-28 melanoma) [nM]	GI50 (OVCAR-8 ovarian) [µM]	GI50 (SNB-19 CNS) [µM]	GI50 (SF-268 CNS) [µM]	GI50 (SK-MEL-2 melanoma) [µM]	GI50 (SF-295 CNS)
O=C1NC2(NC(=O)C1=O)Nc1ccccc1S2	> 100	63.8	> 100	> 76.3	> 100 µM	> 100	> 100	> 100 µM	> 100	> 100										
Nc1nccc2c1ncn2C1C=C(CO)C(O)C1O (centres undefined)	> 1000	> 1000	> 1000		99.1 µM	> 1000	> 1000	> 1000 µM		> 1000	816	6880 nM	269 µM	29400	852	23.9	> 1000			
Cc1ccc([S+](c2ccccc2)c2cc(C)ccc2C)cc1 (centres undefined)		> 100		> 100				> 100 µM	69.1	> 100										
O=[P+](O)c1cccs1	> 100	> 100	> 100	> 100		> 100	> 100	> 100 µM	> 100	> 100										
Oc1ccc(NCc2cc(O)ccc2O)cc1	57.6	29.3	38.7	34.8	36.3 µM	30.4	45.7	> 100 µM	38.3	35.1										
O=NN(CCCl)C(=O)Nc1ccc(Cl)c(Cl)c1	> 100	> 100	> 100	> 100	> 100 µM		> 100	> 100 µM	> 100	> 100										
COC[C@@H]1Cc2cc(OC)c3c(c2[C@H](c2ccc(OC)c(OC)c2)[C@H]1COC)OCO3	> 100	> 100	> 100	> 100	> 100 µM	> 100	> 100	> 100 µM	> 100	> 100										
CCOC(=O)c1c(SC)nc(-c2ccc(Cl)cc2)sc1=N	> 100	> 100	80.3	> 100	52.7 µM	> 100	> 100	80 µM	> 100	> 100										
COc1cc(CCC(=O)O)c2cc3ccccc3cc2c1O	43.8	37.7	51.6	38.1	36.6 µM	75.1	48.4	30.6 µM	37.6	60.5										
O=C1CC(NCCCNC2CC(=O)c3c(Br)sc(Br)c32)c2c(Br)sc(Br)c21 (centres undefined)	4.96	3.86	4.36	11.7	5.01 µM	4.61	> 24.3		14.3	6.75										
CC(=O)C1=C(C)N(c2ccc(C)cc2)C2(O)C=CC(=O)C3=C(O)c4ccccc4C(=O)C312 (centres undefined)	15.7	27.4	52.5	62.4	30.3 µM	47.2	34.5	64.6 µM	43.3	> 100										
Nc1cccc(/C=C/CN2CCN(CCOC(c3ccccc3)c3ccccc3)CC2)c1	13.1	31.7	30.7	35.7	33.6 µM	29.6	27.1	30.1 µM	31.4	30.7										
CC1C(O)[C@@]2(OC[C@@]34C(=O)CC5(O)[C@H](CCC6Cc7nc8c(nc7C[C@]65C)CC5CC[C@@H]6C7=C[C@H]9O[C@@]%10(O[C@@](C)(CO)C[C@@H]%10O)C(C)[C@@]9(O)[C@]7(C)[C@@H](O)CC6[C@]5(C)C8)C3=CC[C@H]4C2C)OC1(C)C (some centres undefined)	0.061	0.00489	0.435	0.37	0.0141 µM			> 3.55 µM	< 0.000355	0.206										
Cc1ccc(NC(=O)CC(=O)n2nc(-c3ccccc3)c(N=Nc3ccccc3C(=O)O)c2-c2ccccc2)cc1		> 100		> 100	> 100 µM	> 100	> 100	> 100 µM	> 100	> 100										
COc1cccc2c1C(=O)c1c(O)c3c(c(O)c1C2=O)C[C@@](O)(C(C)=O)C[C@@H]3OC1CC(N(C)C)C(O)C(C)O1 (some centres undefined)	5.91				0.308 µM and 0.0915 µM	1.34		2.8 µM and 3.75 µM			5.16	37.2 nM and < 11.5 nM	0.0394 µM and < 0.0142 µM	122	47.5	0.00719	0.0396	< 0.0191	< 0.0113	18.8 nM and 25.4 nM
CN(CCNC(=O)c1cn(C)c2c1ccc1cc(Cl)ccc12)CCNC(=O)c1cn(C)c2c1ccc1cc(Cl)ccc12	3.62	10.8	4.87	3.51	13.7 µM	18.2	10.9	33.8 µM												

SMILES	TGI (HT29 colon) [µM]	TGI (UACC-62 melanoma) [µM]	TGI (NCI-H23 lung) [µM]	TGI (SF-268 CNS) [µM]	TGI (SK-MEL-2 melanoma)	TGI (TK-10 renal) [µM]	TGI (SK-MEL-28 melanoma) [µM]	TGI (OVCAR-8 ovarian)	TGI (SF-295 CNS) [µM]	TGI (SNB-19 CNS) [µM]	GI50 (HT29 colon) [nM]	GI50 (UACC-62 melanoma)	GI50 (NCI-H23 lung)	GI50 (TK-10 renal) [nM]	GI50 (SK-MEL-28 melanoma) [nM]	GI50 (OVCAR-8 ovarian) [µM]	GI50 (SNB-19 CNS) [µM]	GI50 (SF-268 CNS) [µM]	GI50 (SK-MEL-2 melanoma) [µM]	GI50 (SF-295 CNS)
C[As](C)SCC(NC(=O)CCC(N)C(=O)O)C(=O)NCC(=O)O.Cl.c1ccncc1 (centres undefined)		1.13	2.7	3.59	1.67 µM	0.595	2.01	0.679 µM	12.7	25.5										
OCCSCc1cc(Cl)cc(Cl)c1O	> 100	> 100	> 100	> 100		> 100	> 100	> 100 µM	> 100	> 100										
O=C1CC(NC2CC(=O)c3c(Br)sc(Br)c32)c2c(Br)sc(Br)c21 (centres undefined)	8.91	24.2	28.3	26.2	14.5 µM	6.47	> 55.4	10.3 µM	27.8	28.4										
CCCCCCCCCCCCCCC(=O)NC(CCCCNC(=O)C1CCCN1C(=O)C(CCCCN)NC(=O)C(CCCCN)NC(=O)C(CCCCN)NC(=O)C(CCCNC(=N)N)NC(=O)C(CCCCN)NC(=O)C(N)C(C)C)C(=O)CN1CCCC1C(=O)NCC(=O)NC(Cc1ccccc1)C(=O)N1CCCC1C(=O)NC(CO)C(=O)NC(Cc1ccc(O)cc1)C(=O)NC(CCCCN)C(=O)NC(CC(C)C)C(=O)NC(CCCNC(=N)N)C(=O)N1CCCC1C(=O)NCC(N)=O (centres undefined) (I: GFPSYKLRPG-NH2 / II: H-VKRKKKP; linker I:N-II:C via X23; configuration not given here)	77.8		92.8	40.8	> 100 µM	13.7	98.6	85.8 µM	59.3	76.6	24700		23.8 µM	704	11300	26.3	31.4	14.6	51.7	18100 nM
CC(C)(C)OC(=O)N1CCCC1C(=O)NCCNc1ccc(NCCNC(=O)C2CCCN2C(=O)OC(C)(C)C)c2c1C(=O)c1ccccc1C2=O (centres undefined)	38.2	23.8	29.4	> 100	38.5 µM	49.1	35.6	21 µM	32											
O=C1CSc2sc(=S)sc2S1	> 100	> 100	> 100	> 100	> 100 µM		> 100	> 100 µM	> 100	> 100										
COC1=CCC2=C(CCN(C(=O)C3CC3)C2Cc2ccc(OC)c(O)c2)C1 (centres undefined)	> 100	> 100	66.1	> 100	> 100 µM	> 100	> 100	> 100 µM	> 100	> 100										
O=C(Nc1sccc1S(=O)(=O)c1ccc(Cl)cc1)c1ccc(Cl)cc1Cl	> 100	> 100	> 100	> 100	> 100 µM	> 100	> 100	> 100 µM	> 100	> 100										
CCSC1=C(C#N)C2(CCCCC2)C2=C(CC(C)(C)CC2=O)N1	> 100	> 100	> 100	> 100	> 100 µM	> 100	> 100	> 100 µM		76.2										
Cc1cc(O)c2cc3c(O)c(O)ccc3cc2c1	8.43	22.6	6	8.51	3.22 µM	33.7	> 58.8	11.2 µM	10.8	> 100										
O=CNNC(=O)CSc1nc2ccc(I)cc2c(=O)n1Cc1ccccc1	> 100	47.6	89.6	> 100	44.4 µM	> 100	> 100	> 100 µM	> 100	> 100										
O=S(=O)(c1ccccc1)[C@@H]1[C@H]2C=C[C@](CS)(O2)[C@H]1S(=O)(=O)c1ccccc1	> 100	> 100	> 100	> 100		> 100	> 100	> 100 µM	> 100	> 100										
NS(=O)(=O)c1ccc(N=Nc2ccc(O)c(O)c2)cc1	66.5		51.8	50.2	34 µM	93	37.2	21.5 µM	> 100	84										
CC(=O)OCC1OC(N2C(=O)CC(N)=Nc3ccccc32)C(OC(C)=O)C(OC(C)=O)C1OC(C)=O (centres undefined)	> 100	> 100	> 100	> 100	> 100 µM	> 100	> 100	> 100 µM	> 100	> 100										
Clc1ccc(/C=C/c2nc(-c3ccc(Cl)cc3)cn3c2nc2ccccc23)cc1	> 100	> 100	> 100	> 100	> 100 µM	> 100	> 100			> 100										
